Test results reported in patent US7297704B2, “Cycloalkyfused indole, benzothiophene, benzofuran and idene derivatives” (Wyeth, priority 2005, dated 2007).
Counter-ions that a name gives are not always drawn. Values belong to the compound of their own block, whether it stands above or below them.

What was measured:
[1] = biological target: T1, Human 5-HT1A Receptor (Homo sapiens, UniProt P08908); experiment: 8-OH-DPAT binding, human 5-HT1A receptor cell line; conditions: stably transfected CHO cells, 8-OH-DPAT ligand 1.5 nM; read-out: h5-HT1A Affinity, Ki
T1 construct: expressed in transfected cells; host or cells: CHO cells
T1 sequence (P08908 1-422): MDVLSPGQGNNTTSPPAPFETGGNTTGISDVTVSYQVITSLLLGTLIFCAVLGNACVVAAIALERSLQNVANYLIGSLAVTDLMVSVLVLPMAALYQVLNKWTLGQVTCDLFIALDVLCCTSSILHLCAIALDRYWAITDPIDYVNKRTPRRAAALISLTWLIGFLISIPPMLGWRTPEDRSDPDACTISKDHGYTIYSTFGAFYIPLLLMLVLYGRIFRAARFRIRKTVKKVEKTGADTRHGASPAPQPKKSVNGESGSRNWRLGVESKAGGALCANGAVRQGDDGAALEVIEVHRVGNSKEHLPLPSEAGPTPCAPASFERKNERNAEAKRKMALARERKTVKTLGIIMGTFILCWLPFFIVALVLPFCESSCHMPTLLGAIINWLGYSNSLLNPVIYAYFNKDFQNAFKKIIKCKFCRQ
Protocol: Stably transfected CHO cells were grown in DMEM containing 10% heat inactivated FBS and non-essential amino acids. Cells were scraped off the plate, transferred to centrifuge tubes, and washed twice by centrifugation (2000 rpm for 10 min., 4° C.) in buffer (50 mM Tris, pH 7.5). The resulting pellets were aliquoted and placed at −80° C. On day of assay, the cells were thawed on ice, and resuspended in buffer. The binding assay was performed in a 96 well microtiter plate in a total volume of […]. Non-specific binding was determined in the presence of […] 5HT; final ligand concentration was 1.5 nM. Following a 30 min. incubation at room temperature, the reaction was terminated by the addition of ice cold buffer and rapid filtration through a GF/B filter presoaked for 30 min. in 0.5% PEI. Compounds were initially tested in a single point assay to determine percent inhibition at […]. Subsequently, Ki values were determined for compounds defined to be active. Percent inhibition Ki was determined by RFComp (Lundon Software), with Serotonin 8-OH-DPAT as the reference compounds.

[2] = biological target: T2, serotonin transporter (Rattus norvegicus, UniProt P31652); experiment: 3H-paroxetine binding to the serotonin transporter, rat frontal cortical membranes; conditions: values printed in parentheses, 3H-paroxetine 0.1 nM, read-out: rb-5-HH-T, (IC50)
T2 construct: frontal cortical membranes prepared from male S.D. rats; from tissue; host or cells: rat frontal cortex membranes (male Sprague-Dawley)
T2 sequence (P31652 whole entry): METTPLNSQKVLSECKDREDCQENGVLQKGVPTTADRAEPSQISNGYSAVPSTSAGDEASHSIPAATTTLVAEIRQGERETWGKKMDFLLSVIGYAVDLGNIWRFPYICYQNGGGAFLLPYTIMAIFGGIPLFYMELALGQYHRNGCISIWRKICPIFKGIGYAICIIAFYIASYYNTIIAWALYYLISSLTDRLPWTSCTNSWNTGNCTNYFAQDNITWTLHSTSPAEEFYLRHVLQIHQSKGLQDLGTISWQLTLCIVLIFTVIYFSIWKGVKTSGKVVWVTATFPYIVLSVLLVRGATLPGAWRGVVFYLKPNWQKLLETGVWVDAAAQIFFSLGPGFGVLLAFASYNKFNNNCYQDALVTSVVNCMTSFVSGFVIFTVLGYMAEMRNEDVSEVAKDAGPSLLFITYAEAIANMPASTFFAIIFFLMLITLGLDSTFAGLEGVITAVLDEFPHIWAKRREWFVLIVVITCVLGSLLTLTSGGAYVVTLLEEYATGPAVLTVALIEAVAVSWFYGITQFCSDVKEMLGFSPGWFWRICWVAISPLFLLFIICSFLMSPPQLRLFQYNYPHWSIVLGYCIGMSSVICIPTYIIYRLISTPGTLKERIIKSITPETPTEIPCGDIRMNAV
Protocol: A protocol similar to that used by Cheetham et al. (Neuropharmacol. 32:737, 1993) was used to determine the affinity of compounds for the serotonin transporter. Briefly, frontal cortical membranes prepared from male S.D. rats were incubated with ^3H-paroxetine (0.1 nM) for 60 min at 25° C. All tubes also contained either vehicle, test compound (one to eight concentrations), or a saturating concentration of fluoxetine (10 μM) to define […]. All reactions are terminated by the addition of ice cold Tris buffer followed by rapid filtration using a Tom Tech filtration device to separate bound from free ^3H-paroxetine. Bound radioactivity was quantitated using a Wallac 1205 Beta Plate® counter. Nonlinear regression analysis was used to determine IC50 values which were converted to Ki values using the method of Cheng and Prusoff (Biochem. Pharmacol. 22: 3099, 1973); […].

[3] = biological target: T1, Human 5-HT1A Receptor; experiment: cAMP RIA in human 5-HT1A receptor cell line; type: cell-based; conditions: superscript b; reversal of agonist activity, CHO cells; read-out: c-AMP, (IC50)^b
Protocol: Stably transfected CHO cells were grown in DMEM containing 10% heat inactivated FBS and non-essential amino acids. The cells were plated at a density of 10^6 cells per well in a 96 well plate and incubated for 2 days in a CO2 incubator. On the second day, the media was replaced with 0.1 ml Krebs and incubated 15 minutes at 37° C. The media was then replaced with Krebs buffer containing 500 uM IBMX and incubated 5 minutes at 37° C. Wells were treated with forskolin (1 uM final conc) followed immediately by test compound (0.1 and 1 uM for initial screen) and incubated for an additional 10 min at 37° C. Reaction was terminated by removal of the media and addition of 0.5 ml ice cold assay buffer (supplied in RIA kit). Plates are stored at −20° C. prior to assessment of cAMP formation by RIA. Compounds shown to have no agonist activities were further analyzed for ability to reverse agonist activity. In separate experiments, 6 concentrations of antagonist were preincubated for 20 min prior to the addition of agonist and forskolin. Cells were harvested as described. The cAMP kit is supplied by Amersham and the RIA is performed as per kit instructions. In the initial screen, percent inhibition of forskolin stimulated cAMP was measured. In the secondary screen, IC50 of reversal of agonist activity was measured. Calculations of IC50 were performed by GraphPad Prism. Serotonin, BMY 7378, Buspirone, and 8-OH-DPAT were used as reference compounds.

Ki [1]: 2.5 nM
IC50 [2]: 3.1 nM
IC50 [3]: 39.4 nM
SMILES: Cc1ccc2c3c(ccc2n1)OC[C@H](CNC[C@@H]1CCc2c(c4cc(F)ccc4n2C)C1)O3 [Example 8, N-{[(3R)-6-fluoro-9-methyl-2,3,4,9-tetrahydro-1H-carbazol-3-yl]methyl}-N-{[(2S)-8-methyl-2,3-dihydro[1,4]dioxino[2,3-f]quinolin-2-yl]methyl}amine]

melting point: 218 to 221 °C (dec.)
SMILES: Cc1ccc2c3c(ccc2n1)OC[C@H](CNC[C@@H]1CCc2[nH]c4ccccc4c2C1)O3 (single isomer, unassigned) (as salt: hydrochloride) [Example 100b]

Ki [1]: 2.03 nM
IC50 [2]: 2.56 nM
IC50 [3]: 144 nM
SMILES: Cc1ccc2c3c(ccc2n1)OC[C@H](CNC[C@@H]1CCc2[nH]c4ccc(F)cc4c2C1)O3 [Example 5, N-{[(3R)-6-fluoro-2,3,4,9-tetrahydro-1H-carbazol-3-yl]methyl}-N-{[(2S)-8-methyl-2,3-dihydro[1,4]dioxino[2,3-f]quinolin-2-yl]methyl}amine]

Ki [1]: 1.26 nM
IC50 [2]: 6.61 nM
IC50 [3]: 79 nM
SMILES: Cc1ccc2c3c(ccc2n1)OC[C@H](CNC[C@H]1CCc2[nH]c4ccc(F)cc4c2C1)O3 [Example 3, S,S-(6-Fluoro-2,3,4,9-tetrahydro-1H-carbazol-3-ylmethyl)-(8-methyl-2,3-dihydro-[1,4]dioxino[2,3-f]quinolin-2-ylmethyl)-amine]

Ki [1]: 0.34 nM
IC50 [2]: 7.74 nM
IC50 [3]: 78.5 nM
SMILES: Cc1ccc2c3c(ccc2n1)OC[C@H](CNC[C@H]1CCc2c(c4cc(F)ccc4n2C)C1)O3 [Example 7]

Further lines, the compound ahead of its results:

SMILES: CCC(C)N(C[C@@H]1CCc2[nH]c3ccc(F)cc3c2C1)C[C@H]1COc2ccc3nc(C)ccc3c2O1.Cl.O (stereo partly drawn) (hydrate or solvate) [Example 58, N-{[(3R)-6-Fluoro-2,3,4,9-tetrahydro-1H-carbazol-3-yl]methyl}-N-{[(2S)-8-methyl-2,3-dihydro[1,4]dioxino[2,3-f]quinolin-2-yl]methyl}butan-2-amine monohydrochloride monohydrate]
melting point: 235 to 256 °C

SMILES: Cc1ccc2c3c(ccc2n1)OC[C@H](CN(CC1CC1)C[C@@H]1CCc2[nH]c4ccc(F)cc4c2C1)O3.Cl.Cl.O.O (hydrate or solvate) [Example 55, (Cyclopropylmethyl){[(3R)-6-fluoro-2,3,4,9-tetrahydro-1H-carbazol-3-yl]methyl}{[(2S)-8-methyl-2,3-dihydro[1,4]dioxino[2,3-f]quinolin-2-yl]methyl}amine dihydrochloride dihydrate]
melting point: 210 to 225 °C

SMILES: CCCN(C[C@@H]1CCc2[nH]c3ccc(F)cc3c2C1)C[C@H]1COc2ccc3nc(C)ccc3c2O1.Cl.Cl.O.O (hydrate or solvate) [Example 54, N-{[(3R)-6-Fluoro-2,3,4,9-tetrahydro-1H-carbazol-3-yl]methyl}-N-{[(2S)-8-methyl-2,3-dihydro[1,4]dioxino[2,3-f]quinolin-2-yl]methyl}propan-1-amine dihydrochloride dihydrate]
melting point: 225 to 240 °C

SMILES: Cc1ccc2c3c(ccc2n1)OC[C@H](CN(CC1CCc2[nH]c4ccc(F)cc4c2C1)C1CCC1)O3.Cl.Cl.O.O (stereo partly drawn) (hydrate or solvate) [Example 53, N-[(6-Fluoro-2,3,4,9-tetrahydro-1H-carbazol-3-yl)methyl]-N-{[(2S)-8-methyl-2,3-dihydro[1,4]dioxino[2,3-f]quinolin-2-yl]methyl}cyclobutanamine dihydrochloride dihydrate]
melting point: 220 to 235 °C

SMILES: Cc1ccc2c3c(ccc2n1)OC[C@H](CN(C[C@@H]1CCc2[nH]c4ccc(F)cc4c2C1)C1CCC1)O3.Cl.Cl.O.O (hydrate or solvate) [Example 56, N-{[(3R)-6-Fluoro-2,3,4,9-tetrahydro-1H-carbazol-3-yl]methyl}-N-{[(2S)-8-methyl-2,3-dihydro[1,4]dioxino[2,3-f]quinolin-2-yl]methyl}cyclobutanamine dihydrochloride dihydrate]
melting point: 215 to 230 °C
